The values that follow come from US20200303198A1, “POLISHING COMPOSITION AND POLISHING METHOD” (FUJIMI INCORPORATED, priority 2019, published 2020).

The nature of this data set: Solubility of biocide in water. To be noted: in words. The class given is physicochemical.

Take `O=C(OCc1ccccc1)c1ccc(O)cc1` [benzyl paraoxybenzoate]: the solubility in water result is reported as “poor solubility in water”.
